Results from PubChem BioAssay (NCI).
“And” between values parts separate entries of the source, which are not always exact repeats. Equal values may be shown once.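 Step 1: Grow cells in 96-well plates. Step 2: Expose to compound for 48 hours at 5 concentrations. Step 3: Interpolate endpoints linearly; if unreached, use highest concentration. GI50: concentration for 50% inhibition of growth. TGI: total growth inhibition.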

How the values were obtained:
Assay in all cases: NCI tumour cell line growth inhibition, 48 h
[1] = tested on: DMS 114 small cell lung
[2] = tested on: SNB-78 CNS
[3] = tested on: DMS 273 small cell lung
[4] = tested on: M19-MEL melanoma
[5] = tested on: DLD-1 colon
[6] = tested on: HOP-18 NSCLC
[7] = tested on: RXF-631 renal
[8] = tested on: MDA-N
[9] = tested on: XF 498 CNS
[10] = tested on: SN12K1 renal
[11] = tested on: P388/ADR leukemia

O=C1CC(c2ccccc2)NCN1 (stereo unspecified)
TGI [1]: > 100 µM | TGI [2]: > 100 µM | TGI [3]: > 100 µM | TGI [4]: > 100 µM | TGI [5]: > 100 µM | TGI [6]: > 100 µM

COc1ccc(/C(Cl)=C(\C=O)c2cc(OC)c(OC)c(OC)c2)cc1OC
TGI [1]: 85.9 µM | TGI [2]: 88.1 µM | TGI [3]: > 100 µM | TGI [7]: 65.4 µM | TGI [4]: > 100 µM | TGI [8]: > 100 µM | TGI [6]: 58.4 µM

NC(=S)N/N=C1\C(=O)N(c2cccc([N+](=O)[O-])c2)C(=O)C1C(=O)Nc1cccc([N+](=O)[O-])c1 (stereo unspecified)
TGI [1]: > 100 µM | TGI [2]: > 100 µM | TGI [3]: > 100 µM | TGI [4]: > 100 µM | TGI [5]: > 100 µM | TGI [6]: > 100 µM

CO/C=C/c1cc2c(cc1C(OC)OC)OCO2
TGI [1]: > 100 µM | TGI [2]: > 100 µM | TGI [3]: > 100 µM | TGI [9]: 84.8 µM | TGI [7]: > 100 µM | TGI [4]: > 100 µM | TGI [5]: > 100 µM

N#Cc1c(C(N)=O)ncn1Cc1ccccc1
TGI [1]: > 100 µM | TGI [2]: > 100 µM | TGI [3]: > 100 µM | TGI [9]: > 100 µM | TGI [7]: > 100 µM | TGI [4]: > 100 µM | TGI [5]: > 100 µM | TGI [6]: > 100 µM

Cn1cc(C(=O)/C(Cl)=C(\Cl)C(=O)O)c2ccccc21
TGI [1]: > 100 µM | TGI [2]: > 100 µM | TGI [3]: > 100 µM | TGI [9]: > 100 µM | TGI [7]: > 100 µM | TGI [4]: > 100 µM | TGI [5]: > 100 µM

Nc1ccn(C2OC(COP(=O)(O)O)C(O)C2O)c(=O)n1 (stereo unspecified)
TGI [8]: > 100 µM

Cc1ccc(NC(=O)/C(=N/NC(=O)CC#N)C2C(=O)N(c3ccccc3)N=C2N)cc1C (stereo unspecified)
TGI [1]: > 100 µM | TGI [2]: > 100 µM | TGI [3]: > 100 µM | TGI [9]: > 100 µM | TGI [4]: > 100 µM | TGI [5]: > 100 µM | TGI [6]: > 100 µM

COC1=CC(C)C2C[C@H]3O[C@H](O)C[C@H]4C(C)C(=O)C(O)C([C@@]2(C)C1=O)[C@@]34C (stereo partly specified)
TGI [1]: > 100 µM | TGI [2]: > 100 µM | TGI [3]: > 100 µM | TGI [4]: > 100 µM | TGI [5]: > 100 µM | TGI [6]: > 100 µM

Nc1nc(F)nc2c1ncn2C1OC(COP(=O)(O)O)C(O)C1O (stereo unspecified)
TGI [10]: 277 µM | TGI [1]: 626 µM | TGI [2]: 636 µM | TGI [3]: 821 µM | TGI [9]: 152 µM | TGI [4]: 877 µM | TGI [11]: 160 µM | TGI [5]: > 1080 µM | TGI [8]: 723 µM | TGI [6]: 552 µM

CC1(C)OC(=O)C=C(O)O1.CC1(C)OC(=O)C=C(O)O1.CCO.Oc1ccc2c(c1)CCC2.[Ti]
GI50 [1]: > 100 µM | TGI [1]: > 100 µM | GI50 [2]: > 100 µM | TGI [2]: > 100 µM | GI50 [3]: > 100 µM | TGI [3]: > 100 µM | GI50 [4]: > 100 µM | TGI [4]: > 100 µM | GI50 [5]: > 100 µM | TGI [5]: > 100 µM | GI50 [6]: > 100 µM | TGI [6]: > 100 µM

O=C(CC1(O)C(=O)Nc2ccccc21)c1ccc(O)cc1O (stereo unspecified)
TGI [1]: > 100 µM | TGI [2]: > 100 µM | TGI [3]: > 100 µM | TGI [9]: > 100 µM | TGI [4]: > 100 µM | TGI [5]: > 100 µM

O=C1C=CC(=O)N1c1ccc2c(c1)Cc1cc(NC(=O)C(F)(F)F)ccc1-2
TGI [8]: 32.5 µM

CC(=O)NC(Cc1c[nH]c2ccccc12)C(=O)O (stereo unspecified)
TGI [8]: > 100 µM

c1cncc(-c2cc(-c3cc(-c4cccnc4)n[nH]3)[nH]n2)c1
TGI [8]: > 100 µM

COc1ccc(C2c3cc4c(cc3OC(O)(CO)C2C(=O)O)OCO4)c(OC)c1OC (stereo unspecified) (tested in a mixture with another compound)
TGI [1]: > 100 µM | TGI [2]: > 100 µM | TGI [3]: > 100 µM | TGI [9]: > 100 µM | TGI [4]: > 100 µM | TGI [5]: > 100 µM | TGI [6]: > 100 µM

CCC[CH2][Sn]([CH2]CCC)([O]C(=O)c1cccc(F)c1F)[O][Sn]([CH2]CCC)([CH2]CCC)[O]C(=O)c1cccc(F)c1F
GI50 [1]: 0.0627 µM | TGI [1]: 0.204 µM | GI50 [2]: 0.139 µM | TGI [2]: 1.51 µM | GI50 [3]: 0.301 µM | TGI [3]: 1.51 µM | GI50 [9]: 0.173 µM | TGI [9]: 0.314 µM | GI50 [7]: 0.0409 µM | TGI [7]: 0.398 µM | GI50 [4]: 0.141 µM | TGI [4]: 0.689 µM | GI50 [5]: 0.182 µM | TGI [5]: 0.744 µM | GI50 [8]: 0.223 µM | TGI [8]: 1.16 µM | GI50 [6]: 0.551 µM | TGI [6]: 1.51 µM

O[C@H]1[C@H]2[C@H](O)CCCN2C[C@H]1O
TGI [1]: > 100 µM | TGI [2]: > 100 µM | TGI [3]: > 100 µM | TGI [9]: > 100 µM | TGI [4]: > 100 µM | TGI [5]: > 100 µM | TGI [6]: > 100 µM

C/C=C/CP(=O)(c1ccccc1)c1ccccc1
TGI [1]: > 100 µM | TGI [2]: > 100 µM | TGI [3]: > 100 µM | TGI [9]: > 100 µM | TGI [4]: > 100 µM | TGI [5]: > 100 µM | TGI [6]: > 100 µM

CCC(=O)Nc1ccc2c(c1)CN1C(=O)c3ccccc3C1=N2
GI50 [8]: > 100 µM | TGI [8]: > 100 µM

CC1=Cc2cc3[n-]c(cc4nc(cc5[n-]c(cc1n2)c(C)c5CCC(=O)O)C(CCC(=O)O)=C4C)cc3C.[Cu+2]
GI50 [1]: > 1 µM and 11.5 µM | TGI [1]: > 44.9 µM | GI50 [2]: > 1 µM and 2.07 µM | TGI [2]: > 1 µM and 8.92 µM | GI50 [3]: > 39.8 µM | TGI [3]: > 55.9 µM | GI50 [9]: > 1 µM and 10.2 µM | TGI [9]: > 1 µM and 26.5 µM | GI50 [4]: > 100 µM | TGI [4]: > 100 µM | GI50 [5]: > 42.6 µM | TGI [5]: > 93 µM | GI50 [8]: 62.4 µM | TGI [8]: > 100 µM | GI50 [6]: > 100 µM | TGI [6]: > 100 µM

NC1=NN(c2ccccc2)C(=O)C1C(=O)C(=O)Nc1cccc(C(F)(F)F)c1 (stereo unspecified)
TGI [1]: > 100 µM | TGI [2]: > 100 µM | TGI [3]: > 100 µM | TGI [9]: > 100 µM | TGI [7]: > 100 µM | TGI [4]: > 100 µM | TGI [5]: > 100 µM | TGI [6]: > 100 µM

C/C(=N\[N+](C)(C)C)C(c1ccccc1)C1(c2ccccc2)C(c2ccccc2)=C1c1ccccc1 (stereo unspecified)
TGI [2]: > 100 µM | TGI [3]: > 100 µM | TGI [9]: 50.4 µM | TGI [4]: > 100 µM | TGI [5]: > 100 µM

CCOC(=O)c1ccc(C(O)CC(=O)OC(C)(C)C)[nH]1 (stereo unspecified)
GI50 [8]: 17.8 µM | TGI [8]: 60.3 µM

CC1(C)CC2=NOS3=C2C(=NO3)C1c1ccccn1 (stereo unspecified)
TGI [8]: 92.9 µM

CC(=O)[CH-]C(C)=O.CC(=O)[CH-]C(C)=O.CC(=O)[CH-]C(C)=O.[Cl-].[Hf+4]
GI50 [1]: > 100 µM | TGI [1]: > 100 µM | GI50 [3]: > 100 µM | TGI [3]: > 100 µM

CCOC(=O)CCc1c(C)c2ccc(O)cc2oc1=O
TGI [8]: > 100 µM

CC1CC(C)C(=O)C(C(=O)CC2CC(=O)NC2=O)C1 (stereo unspecified)
TGI [1]: > 100 µM | TGI [2]: > 100 µM | TGI [3]: > 100 µM | TGI [9]: > 100 µM | TGI [7]: > 100 µM | TGI [4]: > 100 µM | TGI [5]: > 100 µM | TGI [6]: > 100 µM

O=C1NC(=O)[C@H]2C3C=CC([C@@H]12)[C@@H]1C(=O)NC(=O)[C@H]31
TGI [8]: > 100 µM

O=C(CCc1ccc(O)c(O)c1)c1ccc(O)c(O)c1O
TGI [8]: 32.2 µM

O=C(Nc1ccc(N=Nc2ccccc2)cc1)Sc1ccccc1C(=O)O
TGI [2]: > 100 µM | TGI [3]: > 100 µM

O=C1C(Br)=C(c2ccccc2)C(c2ccccc2)=C1c1ccccc1
TGI [1]: 5.03 µM | TGI [2]: 4.26 µM | TGI [3]: 3.68 µM | TGI [9]: 3.65 µM | TGI [7]: 13.1 µM | TGI [4]: 5.58 µM | TGI [5]: 3.66 µM | TGI [8]: 9.61 µM | TGI [6]: 14.9 µM

OCC1OC(O)C(N=Cc2ccc3c(c2)OCO3)C(O)C1O (stereo unspecified)
TGI [8]: > 100 µM
